# Results reported in US20170190671A1, “BIS(ARYL)CATECHOL DERIVATIVES AS HERBICIDES” (E I DU PONT DE NEMOURS AND COMPANY, priority 2014, published 2017).
# How the values were obtained:
# Assay type in all cases: in vivo
# [1] = tested on: sedge, umbrella (small-flower umbrella sedge, Cyperus difformis); experiment: Test B flooded paddy; details: 250 g ai/ha, Flood, 13 to 15 days, scale 0 (no effect) to 100 (complete control)
# Procedure, shortened: (§1)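 In-water treatment: compound dosed into 3 cm flood over soil, water level unchanged throughout. Controls run alongside; visual assessment at day 13–15.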
# [2] = tested on: ducksalad (Heteranthera limosa); experiment: Test B flooded paddy; details: 250 g ai/ha, Flood, 13 to 15 days, scale 0 (no effect) to 100 (complete control)
# Procedure, shortened: as §1
# rice (Oryza sativa) = experiment: Test B flooded paddy; details: 250 g ai/ha, Flood, 13 to 15 days, scale 0 (no effect) to 100 (complete control)
# Procedure, shortened: as §1
# [3] = tested on: barnyardgrass (Echinochloa crus-galli); experiment: Test B flooded paddy; details: 250 g ai/ha, Flood, 13 to 15 days, scale 0 (no effect) to 100 (complete control)
# Procedure, shortened: as §1
# [4] = tested on: pigweed (Amaranthus retroflexus); experiment: Test A preemergence
# Procedure, shortened: (§2)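 Compounds in non-phytotoxic solvent with surfactant applied as soil spray preemergence, or postemergence to plants 2-10 cm at one- to two-leaf stage, in loam/sand. After approximately 10 days in greenhouse, injury rated visually versus untreated controls, 0 (no effect) to 100 (complete control).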
# [5] = tested on: giant foxtail (Setaria faberii); experiment: Test A preemergence
# Procedure, shortened: as §2
# [6] = tested on: Italian ryegrass (Lolium multiflorum); experiment: Test A preemergence
# Procedure, shortened: as §2
# [7] = tested on: ragweed (common ragweed, Ambrosia elatior); experiment: Test A preemergence
# Procedure, shortened: as §2
# kochia (Kochia scoparia) [8] = experiment: Test A preemergence
# Procedure, shortened: as §2
# [9] = tested on: barnyardgrass (Echinochloa crus-galli); experiment: Test A preemergence
# Procedure, shortened: as §2
# [10] = tested on: wheat (Triticum aestivum); experiment: Test A postemergence; details: 0 to 100 scale
# Procedure, shortened: as §2
# [11] = tested on: blackgrass (Alopecurus myosuroides); experiment: Test A postemergence; details: 0 to 100 scale
# Procedure, shortened: as §2
# [12] = tested on: pigweed (Amaranthus retroflexus); experiment: Test A postemergence; details: 0 to 100 scale
# Procedure, shortened: as §2
# [13] = tested on: giant foxtail (Setaria faberii); experiment: Test A postemergence; details: 0 to 100 scale
# Procedure, shortened: as §2
# corn (Zea mays) = experiment: Test A postemergence; details: 0 to 100 scale
# Procedure, shortened: as §2
# [14] = tested on: Italian ryegrass (Lolium multiflorum); experiment: Test A postemergence; details: 0 to 100 scale
# Procedure, shortened: as §2
# [15] = tested on: galium (catchweed bedstraw, Galium aparine); experiment: Test A postemergence; details: 0 to 100 scale
# Procedure, shortened: as §2
# [16] = tested on: ragweed (common ragweed, Ambrosia elatior); experiment: Test A postemergence; details: 0 to 100 scale
# Procedure, shortened: as §2
# kochia (Kochia scoparia) [17] = experiment: Test A postemergence; details: 0 to 100 scale
# Procedure, shortened: as §2
# [18] = tested on: barnyardgrass (Echinochloa crus-galli); experiment: Test A postemergence; details: 0 to 100 scale
# Procedure, shortened: as §2
smiles,measurement,setting,value
FC(F)(F)c1cnc(Oc2c(Br)cccc2Oc2ncc(Cl)cn2)nc1 [Compound 24],"Plant response rating, Sedge, Umbrella",[1],100
same,"Plant response rating, Ducksalad",[2],100
same,"Plant response rating, Rice",rice (Oryza sativa),90
same,"Plant response rating, Barnyardgrass",[3],50
same,"Plant response rating, Pigweed","[4]; 1000 g ai/ha, 0 to 100 scale",100
same,"Plant response rating, Foxtail, Giant","[5]; 1000 g ai/ha, 0 to 100 scale",100
same,"Plant response rating, Ryegrass, Italian","[6]; 1000 g ai/ha, 0 to 100 scale",80
same,"Plant response rating, Ragweed","[7]; 1000 g ai/ha, 0 to 100 scale",70
same,"Plant response rating, Kochia","kochia (Kochia scoparia) [8]; 1000 g ai/ha, 0 to 100 scale",90
same,"Plant response rating, Barnyardgrass","[9]; 1000 g ai/ha, 0 to 100 scale",100
same,"Plant response rating, Wheat",[10]; 1000 g ai/ha,50
same,"Plant response rating, Blackgrass",[11]; 1000 g ai/ha,70
same,"Plant response rating, Pigweed",[12]; 1000 g ai/ha,100
same,"Plant response rating, Foxtail, Giant",[13]; 1000 g ai/ha,90
same,"Plant response rating, Corn",corn (Zea mays); 1000 g ai/ha,50
same,"Plant response rating, Ryegrass, Italian",[14]; 1000 g ai/ha,80
same,"Plant response rating, Galium",[15]; 1000 g ai/ha,90
same,"Plant response rating, Ragweed",[16]; 1000 g ai/ha,60
same,"Plant response rating, Kochia",kochia (Kochia scoparia) [17]; 1000 g ai/ha,90
same,"Plant response rating, Barnyardgrass","[18]; 1000 g ai/ha, 0 no effect, 100 complete control",90
Fc1ccc(F)c(Oc2ncc(Br)cn2)c1Oc1ncc(Br)cn1 [Compound 31],pest or weed control at 250 g/ha,"[1]; Cyperus difformis, 336 h, read-out: Plant response rating, Sedge, Umbrella",50%
same,pest or weed control at 250 g/ha,"[2]; Heteranthera limosa, 336 h, read-out: Plant response rating, Ducksalad",50%
same,plant injury at 250 g/ha,"rice (Oryza sativa); Oryza sativa, 336 h, read-out: Plant response rating, Rice",0%
same,pest or weed control at 250 g/ha,"[3]; Echinochloa crus-galli, 336 h, read-out: Plant response rating, Barnyardgrass",0%
same,pest or weed control at 31 g/ha,"[4]; Amaranthus retroflexus, pre-emergence, 240 h, 31 g ai/ha, 0 to 100 scale (0 no effect, 100 complete control), read-out: Pigweed plant response rating",70%
same,pest or weed control at 125 g/ha,"[4]; Amaranthus retroflexus, pre-emergence, 240 h, 125 g ai/ha, 0 to 100 scale (0 no effect, 100 complete control), read-out: Pigweed plant response rating",100%
same,pest or weed control at 31 g/ha,"[5]; Setaria faberi, pre-emergence, 240 h, 31 g ai/ha, 0 to 100 scale (0 no effect, 100 complete control), read-out: Foxtail, Giant plant response rating",40%
same,pest or weed control at 125 g/ha,"[5]; Setaria faberi, pre-emergence, 240 h, 125 g ai/ha, 0 to 100 scale (0 no effect, 100 complete control), read-out: Foxtail, Giant plant response rating",90%
same,pest or weed control at 31 g/ha,"[6]; Lolium multiflorum, pre-emergence, 240 h, 31 g ai/ha, 0 to 100 scale (0 no effect, 100 complete control), read-out: Ryegrass, Italian plant response rating",0%
same,pest or weed control at 125 g/ha,"[6]; Lolium multiflorum, pre-emergence, 240 h, 125 g ai/ha, 0 to 100 scale (0 no effect, 100 complete control), read-out: Ryegrass, Italian plant response rating",0%
same,pest or weed control at 31 g/ha,"[7]; Ambrosia artemisiifolia, pre-emergence, 240 h, 31 g ai/ha, 0 to 100 scale (0 no effect, 100 complete control), read-out: Ragweed plant response rating",0%
same,pest or weed control at 125 g/ha,"[7]; Ambrosia artemisiifolia, pre-emergence, 240 h, 125 g ai/ha, 0 to 100 scale (0 no effect, 100 complete control), read-out: Ragweed plant response rating",20%
same,pest or weed control at 31 g/ha,"kochia (Kochia scoparia) [8]; Bassia scoparia, pre-emergence, 240 h, 31 g ai/ha, 0 to 100 scale (0 no effect, 100 complete control), read-out: Kochia plant response rating",30%
same,pest or weed control at 125 g/ha,"kochia (Kochia scoparia) [8]; Bassia scoparia, pre-emergence, 240 h, 125 g ai/ha, 0 to 100 scale (0 no effect, 100 complete control), read-out: Kochia plant response rating",90%
same,pest or weed control at 31 g/ha,"[9]; Echinochloa crus-galli, pre-emergence, 240 h, 31 g ai/ha, 0 to 100 scale (0 no effect, 100 complete control), read-out: Barnyardgrass plant response rating",0%
same,pest or weed control at 125 g/ha,"[9]; Echinochloa crus-galli, pre-emergence, 240 h, 125 g ai/ha, 0 to 100 scale, read-out: Plant response rating, Barnyardgrass",70%
same,plant injury at 31 g/ha,"[10]; Triticum aestivum, post-emergence, 240 h, 31 g ai/ha, read-out: Plant response rating, Wheat",20%
same,plant injury at 125 g/ha,"[10]; Triticum aestivum, post-emergence, 240 h, 125 g ai/ha, read-out: Plant response rating, Wheat",30%
same,pest or weed control at 31 g/ha,"[11]; Alopecurus myosuroides, post-emergence, 240 h, 31 g ai/ha, read-out: Plant response rating, Blackgrass",20%
same,pest or weed control at 125 g/ha,"[11]; Alopecurus myosuroides, post-emergence, 240 h, 125 g ai/ha, read-out: Plant response rating, Blackgrass",30%
same,pest or weed control at 31 g/ha,"[12]; Amaranthus retroflexus, post-emergence, 240 h, 31 g ai/ha, read-out: Plant response rating, Pigweed",90%
same,pest or weed control at 125 g/ha,"[12]; Amaranthus retroflexus, post-emergence, 240 h, 125 g ai/ha, read-out: Plant response rating, Pigweed",90%
same,pest or weed control at 31 g/ha,"[13]; Setaria faberi, post-emergence, 240 h, 31 g ai/ha, read-out: Plant response rating, Foxtail, Giant",20%
same,pest or weed control at 125 g/ha,"[13]; Setaria faberi, post-emergence, 240 h, 125 g ai/ha, read-out: Plant response rating, Foxtail, Giant",40%
same,"Corn plant response rating (crop injury, 0 = no effect, 100 = complete kill) at 31 g/ha","corn (Zea mays); Zea mays, post-emergence, 240 h, 31 g ai/ha",20%
same,"Corn plant response rating (crop injury, 0 = no effect, 100 = complete kill) at 125 g/ha","corn (Zea mays); Zea mays, post-emergence, 240 h, 125 g ai/ha",30%
same,pest or weed control at 31 g/ha,"[14]; Lolium multiflorum, post-emergence, 240 h, 31 g ai/ha, read-out: Plant response rating, Ryegrass, Italian",10%
same,pest or weed control at 125 g/ha,"[14]; Lolium multiflorum, post-emergence, 240 h, 125 g ai/ha, read-out: Plant response rating, Ryegrass, Italian",30%
same,pest or weed control at 31 g/ha,"[15]; Galium, post-emergence, 240 h, 31 g ai/ha, read-out: Plant response rating, Galium",70%
same,pest or weed control at 125 g/ha,"[15]; Galium, post-emergence, 240 h, 125 g ai/ha, read-out: Plant response rating, Galium",100%
same,pest or weed control at 31 g/ha,"[16]; Ambrosia artemisiifolia, post-emergence, 240 h, 31 g ai/ha, read-out: Plant response rating, Ragweed",0%
same,pest or weed control at 125 g/ha,"[16]; Ambrosia artemisiifolia, post-emergence, 240 h, 125 g ai/ha, read-out: Plant response rating, Ragweed",0%
same,pest or weed control at 31 g/ha,"kochia (Kochia scoparia) [17]; Bassia scoparia, post-emergence, 240 h, 31 g ai/ha, read-out: Plant response rating, Kochia",20%
same,pest or weed control at 125 g/ha,"kochia (Kochia scoparia) [17]; Bassia scoparia, post-emergence, 240 h, 125 g ai/ha, read-out: Plant response rating, Kochia",80%
same,pest or weed control at 31 g/ha,"[18]; Echinochloa crus-galli, post-emergence, 240 h, 31 g ai/ha, read-out: Plant response rating, Barnyardgrass",10%
same,pest or weed control at 125 g/ha,"[18]; Echinochloa crus-galli, post-emergence, 240 h, 125 g ai/ha, read-out: Plant response rating, Barnyardgrass",20%
